Experimental data reported in patent US20240366648A1, “NAD-AUGMENTATION THERAPY FOR PARKINSON'S DISEASE” (Vestlandets Innovasjonsselskap AS (VIS), priority 2021, published 2024).

Tested on: NAD metabolome in skeletal muscle
Assay: Metabolomic analysis (LC-MS) in skeletal muscle biopsies
Format: in vivo, human
Conditions: oral NR 1000 mg/day, 30 days
Method: Biological material was collected at both visits, following a minimum 6-hour fasting and within 6 hours after study drug intake for visit 2. Sampling included whole blood, serum, peripheral blood mononuclear cells (PBMCs), cerebrospinal fluid (CSF) and muscle biopsy. Lumbar puncture was performed according to standard clinical procedures to collect 10 ml CSF. Needle biopsy of the vastus lateralis muscle was performed using a Bard Magnum biopsy gun (BD©, United States) and 12G×10 cm biopsy needles. Muscle biopsies were immediately dissected to remove any non-muscle tissue (e.g., fat or fascia) and snap-frozen in liquid nitrogen.
Standard substances of all the targeted compounds were used to prepare stock standard solutions and these solutions were mixed and diluted to make serially diluted standard solutions in an internal standard solution containing 11 isotope-labeled compounds (NAD-13C5, NADH-d5, nicotinamide riboside-d4, nicotinic-d4 acid, nicotinic acid-d4 riboside, AMP-15N5, ATP-13C10, nicotinamide-d4, 1-methylnicotinamide-d3, adenosine-13C5 and GTP-13C10) in a concentration range of 0.0002 to 20 nmol/mL. Muscle tissues were added with water at 2.5 μL/mg raw material and then homogenized on an MM 400 mixer mill for 1 min twice. Methanol at 7.5 μL/mg raw material was then added and the samples were homogenized for 1 min three times. The samples were then placed at −20° C. for 2 h before centrifugation. 20 μL of the supernatant was mixed with 180 μL of the internal standard solution. The samples were then placed at 5° C. for 1 h and then centrifuged for 5 min at 21,000 g. The clear supernatants were used for LC-MS analyses. For metabolomic analyses in PBMCs, several aliquots of one sample were thawed on ice, centrifuged (10 min, 350×g, 4° C.), resuspended in ice-cold PBS and counted on a countess II cell counter. The equivalent volume of 10 Mio live cells was transferred into a new tube, centrifuged (10 min, 350×g, 4° C.), the supernatant removed, and the pellet immediately frozen on dry ice. Each PBMC sample was made into 75% methanol at a concentration of 50 μL per 1 Mio cells. After cell lysis on a MM 400 mixer mill for 1 min twice, the sample was centrifuged. 20 μL of the clear supernatant was mixed with 180 μL of the internal standard solution and was then used for LC-MS analysis.
For UPLC-MRM/MS, 10 μL aliquots of each standard solution and each sample solutions were injected to run LCMRM/MS either on a Waters Acquity UPLC coupled to a Sciex QTRAP 6500 Plus mass spectrometer with (−) ion detection or ESI or on an Agilent 1290 UHPLC system coupled to an Agilent 6495B QQQ mass spectrometer with (+) ion detection. For UPLC-(−) MRM/MS, a reversed-phase C18 LC column (2.1*100 mm, 1.8 μm) was used for LC separation, with the use of a tributylamine-ammonium acetate buffer (solvent A) and acetonitrile (solvent B) as the mobile phase for gradient elution at 50° C. and 0.25 mL/min. For UPLC-(+) MRM/MS, a reversed-phase C18 column (2.1*150 mm, 1.8 μm) was used for LC separation, with the use of hepatofluorobutyrate buffer (solvent A) and methanol (solvent B) as the mobile phase for gradient elution at 50° C. and 0.3 mL/min. Concentrations of individual metabolites detected in each sample were calculated by constructing linear-regression curves of individual metabolites with the analyte-to-internal standard peak area ratios (As/Ai) of standard solutions in each set of LC-MS runs and then by interpolating the calibration curves with the as/Ai values measured from injections of sample solutions in an appropriate concentration range for each compound. Sample preparation and metabolomic analyses were conducted at Creative Proteomics, NY, USA.
The between visit change ([visit 2]−[visit 1]) in MDS-UPDRS (total of subsections I-III; and individual subsections I, II and III) was compared between the NR and placebo groups using independent Student's t-test. […]

NC(=O)c1ccc[n+]([C@@H]2O[C@H](CO)[C@@H](O)[C@H]2O)c1 [NR, nicotinamide riboside]
Me-2-PY level in muscle tissue after treatment: strongly elevated | Me-4-PY level in muscle tissue after treatment: strongly elevated | NAAD level in muscle tissue after treatment: strongly elevated | Nam N-oxide level in muscle tissue after treatment: strongly elevated | acetyl-CoA, CoA, SAM and its metabolites, energy compounds such as ATP in muscle: no significant change | methyl-Nam (Me-Nam) level in muscle tissue after treatment: strongly elevated | steady state levels of NAD (NAD+ and NADH), NAD precursors and intermediates in muscle: not significantly changed
